Assay results: patent US9968645B2, “Method for enhanced production of morinda metabolites” (priority 2014, dated 2018)

System: DSS-induced ulcerative colitis in mouse
Experiment: Acute mouse ulcerative colitis model, colitis induced by 4% dextran sulfate (DSS)
Assay type: in vivo
Details: Male BalbC mice, 20 mg/kg co-fed with 4% DSS for 7 days
Method: The therapeutic efficacy of the methanolic extracts of MO hairy roots was examined in an acute mouse ulcerative colitis model. The mouse ulcerative colitis model is used to predict ulcerative colitis and treatment of that disease in human subjects (e.g. Low et. al., 2013). Male BalbC mice in groups of 10 were housed in Good Animal Care Protocol conditions. Colitis was induced by 4% dextran sulfate (DSS). In a pilot dosing study (50 mg/kg, 150 mg/kg, and 450 mg/kg) of MO root extracts on UC, an unexpected finding was made. […] Subsequently the effect of drug treatment on colitis was investigated by co-feeding the mice extracts from MO native plants or hairy root culture at doses below 50 mg/kg along with 4% DSS for 7 days. 5-amino-salicylic acid (5-ASA) was used as a positive treatment control. Animals were weighed, and stool consistency was monitored daily to determine the disease activity index (DAD. All animals were anesthetized and the colons were separated from the proximal rectum, and the colon length was measured between the ileo-cecal junction and the proximal rectum. [table]

For `Nc1ccc(O)c(C(=O)O)c1` [5-ASA, 5-amino-salicylic acid], the “DAI (disease activity index)” value was 3.0 ± 2.22, the Length of colon was 6.77 ± 0.19 cm and the “% of mice developing ulcer” value (including disruption of colonic crypts and damaged glandular structures) was 60%.
